Converted amounts (≈) assume the structure as drawn. Like-named read-outs stand apart in the source and are kept apart here. {(KFF)3K-eg1} = H-(KFF)3K peptide (K lysine, F phenylalanine) with eg1 linker (8-amino-3,6-dioxaoctanoyl), on the PNA N terminus (5' end); {NH2} = C-terminal amide
Columns and labels:
Assay type in all cases: cell-based, Acinetobacter baumannii
CRAB strain AC46 [1] = assay: Antibiotic MIC (CLSI microdilution or gradient strips); conditions: Acinetobacter baumannii
Method: (§1) All minimum inhibitory concentration (MIC) determinations for antibiotics were performed by the standard microdilution method in 96-well microplate (Thermo-Scientific, Roskilde, Denmark) or by gradient test strips (Liofilchem, Italy) according to the Clinical and Laboratory Standards Institute guidelines. Escherichia coli ATCC 25922 was used as control.

CRAB strain SSI1104 = assay: as above; conditions: Acinetobacter baumannii, SSI1104
Method: as §1

[2] = system: A. baumannii ATCC 19606 type strain; assay: as above; conditions: Acinetobacter baumannii, ATCC19606
Method: as §1

CRAB strain AC4 = assay: as above; conditions: Acinetobacter baumannii
Method: as §1

CRAB strain AC8 = assay: as above; conditions: Acinetobacter baumannii
Method: as §1

CRAB strain AC44 [3] = assay: as above; conditions: Acinetobacter baumannii, AC44, urine isolate
Method: as §1

CRAB strain AC1 = assay: as above; conditions: Acinetobacter baumannii, AC1, wound isolate
Method: as §1

CRAB strain AC5 = assay: as above; conditions: Acinetobacter baumannii, AC5, urine isolate
Method: as §1

CRAB strain AC3 = assay: as above; conditions: Acinetobacter baumannii, AC3, sputum isolate
Method: as §1

CRAB strain AC2 [4] = assay: as above; conditions: Acinetobacter baumannii
Method: as §1

CRAB strain AC9 = assay: as above; conditions: Acinetobacter baumannii
Method: as §1

CRAB strain AC7 = assay: as above; conditions: Acinetobacter baumannii
Method: as §1, with “guidelines.” for “guidelines. Escherichia coli ATCC 25922 was used as control.”

CRAB strain AC6 = assay: as above; conditions: Acinetobacter baumannii
Method: as §1, with “guidelines.” for “guidelines. Escherichia coli ATCC 25922 was used as control.”

CRAB strain AC46 [5] = assay: BPP-PNA MIC, broth microdilution
Method: (§2) MIC values were determined by broth microdilution according to standard protocols with a few modifications. […] Then, 180 µL bacterial solutions were dispensed into a low-bind 96-well plate (Thermo-Scientific, Roskilde, Denmark) along with 20 µL of BPP-PNA compound (BPP-PNA was serially diluted 2-fold from 16 to 0.5 µM in a 96-well plate). The plate was incubated in a Tecan Genios plate reader (GMI, Minnesota, Ramsey, USA) at 37 °C for 18 h with linear shaking, OD was measured every 20 min at 595 nm. […] The minimum bactericidal concentration (MBC) values were determined by plating 10 µL samples from the wells with no visible turbidity onto Mueller–Hinton agar plates. The MBC is determined the lowest concentration of BPP-PNA that reduces the viability of the initial bacterial inoculum by ≥99.9% (3-log reduction in CFU/mL). A minimum of two independent experiments (biological replicates) of the assay were conducted, and two technical replicates were used in each experiment for each bacterium, compound, and concentration.

A. baumannii SSI1104 = assay: BPP-PNA MIC, broth microdilution
Method: as §2

CRAB strain AC44 [6] = assay: BPP-PNA MIC, broth microdilution
Method: (§3) MIC values were determined by broth microdilution according to standard protocols with a few modifications. An overnight bacterial cell culture was diluted to approximately 5 × 10^5 CFU/mL in non-cation-adjusted Muller Hinton Broth (MHB). Then, 180 µL bacterial solutions were dispensed into a low-bind 96-well plate (Thermo-Scientific, Roskilde, Denmark) along with 20 µL of BPP-PNA compound (BPP-PNA was serially diluted 2-fold from 16 to 0.5 µM in a 96-well plate). The plate was incubated in a Tecan Genios plate reader (GMI, Minnesota, Ramsey, USA) at 37 °C for 18 h with linear shaking, OD was measured every 20 min at 595 nm. […] The minimum bactericidal concentration (MBC) values were determined by plating 10 µL samples from the wells with no visible turbidity onto Mueller–Hinton agar plates. The MBC is determined the lowest concentration of BPP-PNA that reduces the viability of the initial bacterial inoculum by ≥99.9% (3-log reduction in CFU/mL). A minimum of two independent experiments (biological replicates) of the assay were conducted, and two technical replicates were used in each experiment for each bacterium, compound, and concentration.

A. baumannii ATCC 19606 = assay: BPP-PNA MIC, broth microdilution; conditions: 37 °C, 18 h
Method: as §3

CRAB strain AC2 [7] = assay: BPP-PNA MIC, broth microdilution
Method: as §3

[8] = AC46, sputum isolate, CLSI, read-out: MIC, AC46
[9] = AC4, trachea isolate, CLSI, read-out: MIC, AC4
[10] = AC8, sputum isolate, CLSI, read-out: MIC, AC8
[11] = AC2, wound isolate, CLSI, read-out: MIC, AC2
[12] = AC9, CSF isolate, CLSI, read-out: MIC, AC9
[13] = AC7, blood isolate, CLSI, read-out: MIC, AC7
[14] = AC6, blood isolate, CLSI, read-out: MIC, AC6
[15] = Table 4 (anti-rne), brand of medium not given, non-cation-adjusted MHB by method
[16] = Sigma MHB medium without cation, 37 °C, 18 h

Molecule	MIC (CRAB strain AC46 [1]; [8])	MIC [2]	MIC (CRAB strain AC8; [10])	MIC (CRAB strain AC44 [3])	MIC (CRAB strain AC1)	MIC (CRAB strain AC3)	MIC (CRAB strain AC9; [12])	MIC, AC46 (CRAB strain AC46 [5]; [15])	MIC, AC44 (CRAB strain AC44 [6]; [15])	MIC, ATCC 19606 (A. baumannii ATCC 19606; [15])	other results
CC(C)(O/N=C(\C(=O)N[C@@H]1C(=O)N2C(C(=O)[O-])=C(C[n+]3ccccc3)CS[C@H]12)c1csc(N)n1)C(=O)O [Ceftazidime]	128 µg/mL (≈ 234 µM)	8 µg/mL (≈ 14.6 µM)	64 µg/mL (≈ 117 µM)	256 µg/mL (≈ 468 µM)	64 µg/mL (≈ 117 µM)	64 µg/mL (≈ 117 µM)	32 µg/mL (≈ 58.5 µM)				MIC (CRAB strain SSI1104): > 8 µg/mL; MIC (CRAB strain AC4; [9]): 64 µg/mL (≈ 117 µM); MIC (CRAB strain AC5): 32 µg/mL (≈ 58.5 µM); MIC (CRAB strain AC2 [4]; [11]): 64 µg/mL (≈ 117 µM); MIC (CRAB strain AC7; [13]): 64 µg/mL (≈ 117 µM); MIC (CRAB strain AC6; [14]): 32 µg/mL (≈ 58.5 µM)
CNC(C)C1CCC(N)C(OC2C(N)CC(N)C(OC3OCC(C)(O)C(NC)C3O)C2O)O1 (stereo not drawn) [Gentamicin]		4 µg/mL (≈ 8.38 µM)			8 µg/mL (≈ 16.8 µM)	8 µg/mL (≈ 16.8 µM)					MIC (CRAB strain AC46 [1]; AC46, read-out: MIC, AC46): 16 µg/mL (≈ 33.5 µM); MIC (CRAB strain SSI1104): 32 µg/mL (≈ 67 µM); MIC (CRAB strain AC4; AC4, read-out: MIC, AC4): 16 µg/mL (≈ 33.5 µM); MIC (CRAB strain AC8; AC8, read-out: MIC, AC8): 16 µg/mL (≈ 33.5 µM); MIC (CRAB strain AC2 [4]; AC2, read-out: MIC, AC2): 16 µg/mL (≈ 33.5 µM); MIC (CRAB strain AC9; AC9, read-out: MIC, AC9): 16 µg/mL (≈ 33.5 µM); MIC (CRAB strain AC7; AC7, read-out: MIC, AC7): 16 µg/mL (≈ 33.5 µM); MIC (CRAB strain AC6; AC6, read-out: MIC, AC6): 16 µg/mL (≈ 33.5 µM)
C[C@@H](O)[C@H]1C(=O)N2C(C(=O)O)=C(SCCN=CN)C[C@H]12 [Imipenem]	16 µg/mL (≈ 53.4 µM)	1 µg/mL (≈ 3.34 µM)	16 µg/mL (≈ 53.4 µM)	16 µg/mL (≈ 53.4 µM)	8 µg/mL (≈ 26.7 µM)	32 µg/mL (≈ 107 µM)	16 µg/mL (≈ 53.4 µM)				MIC (CRAB strain AC4; [9]): 8 µg/mL (≈ 26.7 µM); MIC (CRAB strain AC5): 16 µg/mL (≈ 53.4 µM); MIC (CRAB strain AC2 [4]; [11]): 16 µg/mL (≈ 53.4 µM); MIC (CRAB strain AC7; [13]): 16 µg/mL (≈ 53.4 µM); MIC (CRAB strain AC6; [14]): 16 µg/mL (≈ 53.4 µM)
CN(C)[C@@H]1C(O)=C(C(N)=O)C(=O)[C@@]2(O)C(O)=C3C(=O)c4c(O)cccc4[C@@](C)(O)[C@H]3C[C@@H]12 [Tetracycline]	128 µg/mL (≈ 288 µM)	1 µg/mL (≈ 2.25 µM)	32 µg/mL (≈ 72 µM)	256 µg/mL (≈ 576 µM)			32 µg/mL (≈ 72 µM)				
H-(KFF)3K-eg1- TTTGATGTGTG -NH2 (all peptide nucleic acid (PNA), 5' {(KFF)3K-eg1}, 3' {NH2}) [PNA 5822, anti-rne mismatch control of 5656]								8 µM	8 µM	8 µM	MIC, SSI 1104 (A. baumannii SSI1104; [15]): 8 µM; MIC, AC2 (CRAB strain AC2 [7]; [15]): 8 µM
H-(KFF)3K-eg1-ACGATTCTTGG-NH2 (all peptide nucleic acid (PNA), 5' {(KFF)3K-eg1}, 3' {NH2}) [PNA 5638, anti-rne mismatch control of 5637]								1 µM	2 µM	2 µM	
H-(KFF)3K-eg1-ACGTTTCATGG-NH2 (all peptide nucleic acid (PNA), 5' {(KFF)3K-eg1}, 3' {NH2}) [PNA 5637, anti-rne peptide-PNA conjugate, match, −2 to +9]								1 µM	1 µM	1 µM	
H-(KFF)3K-eg1-ATACCGCTTAC-NH2 (all peptide nucleic acid (PNA), 5' {(KFF)3K-eg1}, 3' {NH2}) [PNA 5653, anti-acpP mismatch control of 5652]											MIC, AC46 (CRAB strain AC46 [5]; [16]): 4 µM; MIC, SSI 1104 (A. baumannii SSI1104; [16]): 4 µM; MIC, AC44 (CRAB strain AC44 [6]; [16]): 4 µM; MIC, ATCC 19606 (A. baumannii ATCC 19606; Sigma MHB medium without cation, ~5 × 10^5 CFU/mL, OD595 < 0.1): 4 µM; MIC, AC2 (CRAB strain AC2 [7]; [16]): 4 µM

Source: PMC8071358, “Targeting of the Essential acpP, ftsZ, and rne Genes in Carbapenem-Resistant Acinetobacter baumannii by Antisense PNA Precision Antibacterials” (Biomedicines, 2021)
